Test results published in patent US20060069132A1, “Azolecarboxamide herbicides” (priority 2004, published 2006).

What was measured:
blackgrass = test: Test B postemergence herbicide test; assay type: in vivo, Alopecurus myosuroides; conditions: postemergence
Procedure, shortened: (§1)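 Plants grow to 1- to 4-leaf stage (2–18 cm) for postemergence spraying, or to 2-leaf stage for the paddy test. Formulated compound is applied. Greenhouse holding lasts 13–15 days. Response is scored visually relative to controls, 0 no effect to 100 complete control; a dash means no result.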

large crabgrass [1] = test: Test B pre-/postemergence herbicide test; assay type: in vivo, Digitaria sanguinalis; conditions: for Crabgrass, Large plant response rating: postemergence
Procedure, shortened: (§2)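 Test chemicals in a non-phytotoxic solvent mixture with surfactant were applied preemergence to seeded species and postemergence to plants 2-18 cm tall (1- to 4-leaf stage); rice and barnyardgrass were also tested in a flooded paddy at the 2-leaf stage. Visual rating versus controls after 13-15 days in greenhouse, scale 0 (no effect) to 100 (complete control).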

large crabgrass [2] = test: Test A pre-/postemergence herbicide test; assay type: in vivo, Digitaria sanguinalis
Procedure, shortened: (§3)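 Visual injury scores on a 0–100 scale (100 = complete control) taken about ten days post-treatment in greenhouse against untreated controls; dash means no result. Treatments: preemergence soil spray and postemergence spray to runoff on one- to two-leaf plants 2 to 10 cm tall, surfactant-containing formulation.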

pigweed = test: Test B pre-/postemergence herbicide test; assay type: in vivo, Amaranthus retroflexus; conditions: for Pigweed plant response rating: postemergence
Procedure, shortened: as §2

morningglory [3] = test: Test B pre-/postemergence herbicide test; assay type: in vivo, Ipomoea coccinea; conditions: for Morningglory plant response rating: postemergence
Procedure, shortened: (§4)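 Species tested were Echinochloa crus-galli, Ipomoea coccinea, Xanthium strumarium and Oryza sativa, treated both before emergence and at the 1- to 4-leaf stage; rice and barnyardgrass were also tested under flooding at 2 leaves. Greenhouse incubation lasted 13–15 days before visual 0–100 scoring.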

velvetleaf [4] = test: Test A pre-/postemergence herbicide test; assay type: in vivo, Abutilon theophrasti
Procedure, shortened: as §3

cocklebur = test: Test B pre-/postemergence herbicide test; assay type: in vivo, Xanthium strumarium; conditions: for Cocklebur plant response rating: postemergence
Procedure, shortened: as §4

barnyardgrass [5] = test: Test A pre-/postemergence herbicide test; assay type: in vivo, Echinochloa crus-galli
Procedure, shortened: as §3

[6] = tested on: small flower umbrella sedge; test: Test B flooded paddy test; assay type: in vivo, Cyperus difformis; conditions: 1000 g ai/ha, scale 0 to 100 (0 no effect, 100 complete control)
Procedure, shortened: as §1

lambsquarters = test: Test B pre-/postemergence herbicide test; assay type: in vivo, Chenopodium album; conditions: for Lambsquarters plant response rating: postemergence
Procedure, shortened: as §2

ducksalad = test: Test B flooded paddy test; assay type: in vivo, Heteranthera limosa; conditions: 1000 g ai/ha, scale 0 to 100 (0 no effect, 100 complete control)
Procedure, shortened: as §1

velvetleaf [7] = test: Test B pre-/postemergence herbicide test; assay type: in vivo, Abutilon theophrasti; conditions: for Velvetleaf plant response rating: postemergence
Procedure, shortened: as §2

redroot pigweed = test: Test A pre-/postemergence herbicide test; assay type: in vivo, Amaranthus retroflexus
Procedure, shortened: as §3

rice [8] = test: Test B pre-/postemergence herbicide test; assay type: in vivo, Oryza sativa; conditions: preemergence
Procedure, shortened: as §2

barnyardgrass [9] = test: Test B flooded paddy test; assay type: in vivo, Echinochloa crus-galli; conditions: 1000 g ai/ha, scale 0 to 100 (0 no effect, 100 complete control)
Procedure, shortened: as §1

barnyardgrass [10] = test: Test B pre-/postemergence herbicide test; assay type: in vivo, Echinochloa crus-galli; conditions: for Barnyardgrass plant response rating: postemergence
Procedure, shortened: as §4

Surinam grass = test: Test B pre-/postemergence herbicide test; assay type: in vivo, Urochloa decumbens; conditions: for Surinam Grass plant response rating: postemergence
Procedure, shortened: as §2

rice [11] = test: Test B flooded paddy test; assay type: in vivo, Oryza sativa; conditions: 1000 g ai/ha, scale 0 to 100 (0 no effect, 100 complete control)
Procedure, shortened: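 Paddy species grown to the 2-leaf stage under flooding; blackgrass sprayed postemergence at 2–18 cm (1- to 4-leaf stage). Plants kept in a greenhouse for 13 to 15 days, then visually rated against controls on 0 (no effect) to 100 (complete control).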

corn = test: Test B pre-/postemergence herbicide test; assay type: in vivo, Zea mays; conditions: for Corn plant response rating: postemergence
Procedure, shortened: as §2

giant foxtail [12] = test: Test B pre-/postemergence herbicide test; assay type: in vivo, Setaria faberi; conditions: for Foxtail, Giant plant response rating: postemergence
Procedure, shortened: as §2

wild oat = test: Test B postemergence herbicide test; assay type: in vivo, Avena fatua; conditions: postemergence
Procedure, shortened: as §1

morningglory [13] = test: Test A pre-/postemergence herbicide test; assay type: in vivo, Ipomoea spp.
Procedure, shortened: as §3

wheat = test: Test B postemergence herbicide test; assay type: in vivo, Triticum aestivum; design: key to Wheat plant response rating: 0 = no effect, 100 = complete control; conditions: postemergence
Procedure, shortened: as §1

giant foxtail [14] = test: Test A pre-/postemergence herbicide test; assay type: in vivo, Setaria faberi
Procedure, shortened: as §3

[15] = 125 g ai/ha, visual rating, scale 0 (no effect) to 100 (complete control)
[16] = 500 g ai/ha, scale 0 to 100, 0 is no effect, 100 is complete control
[17] = 125 g ai/ha, 0 is no effect, 100 is complete control, preemergence
[18] = 500 g ai/ha, visual rating, 0 = no effect, 100 = complete control, preemergence
[19] = Postemergence, 500 g ai/ha, 0 to 100 scale, 0 no effect, 100 complete control
[20] = Postemergence, 2000 g ai/ha, 0 to 100 scale, 0 no effect, 100 complete control
[21] = Preemergence, 2000 g ai/ha, visual rating, 0 to 100 scale (0 no effect, 100 complete control)
[22] = preemergence, 500 g ai/ha, visual injury, 0 to 100 scale (0 no effect, 100 complete control)

SMILES: C#CCOC(=O)c1cccc(NC(=O)c2cc(C(C)(C)C)nn2C)n1 [Compound 317]
- Blackgrass plant response rating (blackgrass; [15]): 0
- Blackgrass plant response rating (blackgrass; [16]): 0
- Plant response rating (0 to 100 scale), Crabgrass, Large (large crabgrass [1]; [17]): 0
- Crabgrass, Large plant response rating (large crabgrass [1]; [15]): 0
- Plant response rating, Crabgrass, Large (large crabgrass [1]; [18]): 0
- Crabgrass, Large plant response rating (large crabgrass [1]; [16]): 0
- Crabgrass, Large plant response rating (large crabgrass [2]; [19]): 10
- Plant response rating, Crabgrass, Large (large crabgrass [2]; [20]): 10
- Crabgrass, Large plant response rating (large crabgrass [2]; [21]): 10
- Crabgrass, Large plant response rating (large crabgrass [2]; [22]): 0
- Plant response rating (0 to 100 scale), Pigweed (pigweed; [17]): 0
- Pigweed plant response rating (pigweed; [15]): 0
- Plant response rating, Pigweed (pigweed; [18]): 0
- Pigweed plant response rating (pigweed; [16]): 0
- Plant response rating (0 to 100 scale), Morningglory (morningglory [3]; [17]): 0
- Morningglory plant response rating (morningglory [3]; [15]): 0
- Plant response rating, Morningglory (morningglory [3]; [18]): 0
- Morningglory plant response rating (morningglory [3]; [16]): 0
- Velvetleaf plant response rating (velvetleaf [4]; [19]): 0
- Plant response rating, Velvetleaf (velvetleaf [4]; [20]): 0
- Velvetleaf plant response rating (velvetleaf [4]; [21]): 30
- Velvetleaf plant response rating (velvetleaf [4]; [22]): 0
- Plant response rating (0 to 100 scale), Cocklebur (cocklebur; [17]): 0
- Cocklebur plant response rating (cocklebur; [15]): 0
- Plant response rating, Cocklebur (cocklebur; [18]): 0
- Cocklebur plant response rating (cocklebur; [16]): 0
- Barnyardgrass plant response rating (barnyardgrass [5]; [19]): 0
- Plant response rating, Barnyardgrass (barnyardgrass [5]; [20]): 0
- Barnyardgrass plant response rating (barnyardgrass [5]; [21]): 0
- Barnyardgrass plant response rating (barnyardgrass [5]; [22]): 0
- Sedge, Umbrella plant response rating [6]: 0
- Plant response rating (0 to 100 scale), Lambsquarters (lambsquarters; [17]): 0
- Lambsquarters plant response rating (lambsquarters; [15]): 0
- Plant response rating, Lambsquarters (lambsquarters; [18]): 0
- Lambsquarters plant response rating (lambsquarters; [16]): 50
- Ducksalad plant response rating (ducksalad): 0
- Plant response rating (0 to 100 scale), Velvetleaf (velvetleaf [7]; [17]): 0
- Velvetleaf plant response rating (velvetleaf [7]; [15]): 0
- Plant response rating, Velvetleaf (velvetleaf [7]; [18]): 0
- Velvetleaf plant response rating (velvetleaf [7]; [16]): 0
- Pigweed plant response rating (redroot pigweed; [19]): 0
- Plant response rating, Pigweed (redroot pigweed; [20]): 10
- Pigweed plant response rating (redroot pigweed; [21]): 30
- Pigweed plant response rating (redroot pigweed; [22]): 20
- Plant response rating (0 to 100 scale), Rice (rice [8]; 125 g ai/ha, 0 is no effect, 100 is complete control): 0
- Plant response rating, Rice (rice [8]; 500 g ai/ha, visual rating, 0 = no effect, 100 = complete control): 0
- Barnyardgrass plant response rating (barnyardgrass [9]): 0
- Plant response rating (0 to 100 scale), Barnyardgrass (barnyardgrass [10]; [17]): 0
- Barnyardgrass plant response rating (barnyardgrass [10]; [15]): 0
- Plant response rating, Barnyardgrass (barnyardgrass [10]; [18]): 0
- Barnyardgrass plant response rating (barnyardgrass [10]; [16]): 0
- Plant response rating (0 to 100 scale), Surinam Grass (Surinam grass; [17]): 0
- Surinam Grass plant response rating (Surinam grass; [15]): 0
- Plant response rating, Surinam Grass (Surinam grass; [18]): 0
- Surinam Grass plant response rating (Surinam grass; [16]): 0
- Rice plant response rating (rice [11]): 0
- Plant response rating (0 to 100 scale), Corn (corn; [17]): 0
- Corn plant response rating (corn; [15]): 0
- Plant response rating, Corn (corn; [18]): 0
- Corn plant response rating (corn; [16]): 0
- Plant response rating (0 to 100 scale), Foxtail, Giant (giant foxtail [12]; [17]): 0
- Foxtail, Giant plant response rating (giant foxtail [12]; [15]): 0
- Plant response rating, Foxtail, Giant (giant foxtail [12]; [18]): 0
- Foxtail, Giant plant response rating (giant foxtail [12]; [16]): 0
- Oat, Wild plant response rating (wild oat; [15]): 0
- Oat, Wild plant response rating (wild oat; [16]): 0
- Morningglory plant response rating (morningglory [13]; [19]): 0
- Plant response rating, Morningglory (morningglory [13]; [20]): 0
- Morningglory plant response rating (morningglory [13]; [21]): 0
- Morningglory plant response rating (morningglory [13]; [22]): 0
- Wheat plant response rating (wheat; [15]): 0
- Wheat plant response rating (wheat; [16]): 0
- Foxtail, Giant plant response rating (giant foxtail [14]; [19]): 0
- Plant response rating, Foxtail, Giant (giant foxtail [14]; [20]): 0
- Foxtail, Giant plant response rating (giant foxtail [14]; [21]): 0
- Foxtail, Giant plant response rating (giant foxtail [14]; [22]): 0
